Read-outs that look alike come from different tables or passages of the source.
Assays:
[1] = system: CCRF-CEM; test: NCI 60 antitumor screening (single dose / five doses); assay type: cell-based; conditions: Homo sapiens; for inhibition at 10 µM: CCRF-CEM (leukaemia), single dose 10 μM, read-out: Growth inhibition percentage (GI %); for GI50: CCRF-CEM, five doses (0.01–100 μM), read-out: GI50
[2] = system: K-562; test: as above; assay type: cell-based; conditions: Homo sapiens, K562; for inhibition at 10 µM: K-562 (leukaemia), single dose 10 μM, read-out: Growth inhibition percentage (GI %); for GI50: K-562, five doses (0.01–100 μM), read-out: GI50
[3] = system: MOLT-4; test: as above; assay type: cell-based; conditions: Homo sapiens; for inhibition at 10 µM: MOLT-4 (leukaemia), single dose 10 μM, read-out: Growth inhibition percentage (GI %); for GI50: MOLT-4, five doses (0.01–100 μM), read-out: GI50
[4] = system: SR; test: as above; assay type: cell-based; conditions: Homo sapiens; for inhibition at 10 µM: SR (leukaemia), single dose 10 μM, read-out: Growth inhibition percentage (GI %); for GI50: SR, five doses (0.01–100 μM), read-out: GI50
[5] = system: EKVX; test: as above; assay type: cell-based; conditions: Homo sapiens; for inhibition at 10 µM: EKVX (non-small cell lung cancer), single dose 10 μM, read-out: Growth inhibition percentage (GI %)
[6] = system: HOP-92; test: as above; assay type: cell-based; conditions: Homo sapiens; for inhibition at 10 µM: HOP-92 (non-small cell lung cancer), single dose 10 μM, read-out: Growth inhibition percentage (GI %); for GI50: HOP-92, five doses (0.01–100 μM), read-out: GI50
[7] = system: NCI-H460; test: NCI 60 antitumor screening (single dose); assay type: cell-based; conditions: Homo sapiens; NCI-H460 (non-small cell lung cancer), single dose 10 μM; read-out: Growth inhibition percentage (GI %)
Summary of the method: (§1)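 Values are GI% (100 minus percent growth, G%) from the NCI 60 cell line screen at one 10 μM concentration. Tests were done in triplicate under NCI protocol, with a mean across the whole panel reported as well.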

[8] = system: OVCAR-3; test: NCI 60 antitumor screening (single dose); assay type: cell-based; conditions: Homo sapiens; OVCAR-3 (ovarian cancer), single dose 10 μM; read-out: Growth inhibition percentage (GI %)
Summary of the method: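 At one concentration (10 μM), compounds are run in triplicate on 60 human cancer lines per the NCI method. Treated-cell growth is recorded as G%. Reported inhibition equals 100 − G%.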

[9] = system: SF-268; test: NCI 60 antitumor screening (single dose); assay type: cell-based; conditions: Homo sapiens; SF-268 (CNS cancer), single dose 10 μM; read-out: Growth inhibition percentage (GI %)
Summary of the method: as §1

[10] = system: COLO 205; test: NCI 60 antitumor screening (single dose / five doses); assay type: cell-based; conditions: Homo sapiens; for inhibition at 10 µM: COLO 205 (colon cancer), single dose 10 μM, read-out: Growth inhibition percentage (GI %); for GI50: COLO 205, five doses (0.01–100 μM), read-out: GI50
[11] = system: HT29; test: as above; assay type: cell-based, human; conditions: for GI50: read-out: GI50; for inhibition at 10 µM: HT-29, HT29 (colon cancer), single dose 10 μM, read-out: Growth inhibition percentage (GI %)
[12] = system: SW-620; test: as above; assay type: cell-based, human; conditions: for GI50: read-out: GI50; for inhibition at 10 µM: SW-620 (colon cancer), single dose 10 μM, read-out: Growth inhibition percentage (GI %)
[13] = system: SF-539; test: as above; assay type: cell-based; conditions: Homo sapiens; for inhibition at 10 µM: SF-539 (CNS cancer), single dose 10 μM, read-out: Growth inhibition percentage (GI %); for GI50: SF-539, five doses (0.01–100 μM), read-out: GI50
[14] = system: MALME-3M; test: as above; assay type: cell-based; conditions: Homo sapiens; for inhibition at 10 µM: MALME-3M (melanoma), single dose 10 μM, read-out: Growth inhibition percentage (GI %); for GI50: MALME-3M, five doses (0.01–100 μM), read-out: GI50
[15] = system: MDA-MB-435; test: as above; assay type: cell-based; conditions: Homo sapiens; for inhibition at 10 µM: MDA-MB-435 (melanoma), single dose 10 μM, read-out: Growth inhibition percentage (GI %)
[16] = system: SK-MEL-2; test: as above; assay type: cell-based; conditions: Homo sapiens; for inhibition at 10 µM: SK-MEL-2 (melanoma), single dose 10 μM, read-out: Growth inhibition percentage (GI %); for GI50: SK-MEL-2, five doses (0.01–100 μM)
[17] = system: SK-MEL-28; test: as above; assay type: cell-based; conditions: Homo sapiens; for inhibition at 10 µM: SK-MEL-28 (melanoma), single dose 10 μM, read-out: Growth inhibition percentage (GI %)
[18] = system: SK-MEL-5; test: as above; assay type: cell-based; conditions: Homo sapiens; for inhibition at 10 µM: SK-MEL-5 (melanoma), single dose 10 μM, read-out: Growth inhibition percentage (GI %); for GI50: SK-MEL-5, five doses (0.01–100 μM), read-out: GI50
[19] = system: UACC-257; test: as above; assay type: cell-based; conditions: Homo sapiens; for inhibition at 10 µM: UACC-257 (melanoma), single dose 10 μM, read-out: Growth inhibition percentage (GI %)
[20] = system: UACC-62; test: as above; assay type: cell-based; conditions: Homo sapiens; for inhibition at 10 µM: UACC-62 (melanoma), single dose 10 μM, read-out: Growth inhibition percentage (GI %)
[21] = system: IGROV1; test: as above; assay type: cell-based; conditions: Homo sapiens, IGROV-1; for inhibition at 10 µM: IGROV1 (ovarian cancer), single dose 10 μM, read-out: Growth inhibition percentage (GI %); for GI50: IGROV1, five doses (0.01–100 μM), read-out: GI50
[22] = system: 786-0; test: as above; assay type: cell-based; conditions: Homo sapiens; for inhibition at 10 µM: 786-0, 786-0 (renal cancer), single dose 10 μM, read-out: Growth inhibition percentage (GI %); for GI50: 786-0, five doses (0.01–100 μM), read-out: GI50
[23] = system: A498; test: as above; assay type: cell-based; conditions: Homo sapiens; for GI50: A498, five doses (0.01–100 μM), read-out: GI50
[24] = system: ACHN; test: as above; assay type: cell-based; conditions: Homo sapiens; for inhibition at 10 µM: ACHN (renal cancer), single dose 10 μM, read-out: Growth inhibition percentage (GI %); for GI50: ACHN, five doses (0.01–100 μM), read-out: GI50
[25] = system: SN 12C; test: as above; assay type: cell-based; conditions: Homo sapiens, SN12C; for inhibition at 10 µM: SN 12C (renal cancer), single dose 10 μM, read-out: Growth inhibition percentage (GI %)
[26] = system: UO-31; test: as above; assay type: cell-based; conditions: Homo sapiens; for inhibition at 10 µM: UO-31 (renal cancer), single dose 10 μM, read-out: Growth inhibition percentage (GI %); for GI50: UO-31, five doses (0.01–100 μM), read-out: GI50
[27] = system: MDA-MB-231/ATCC; test: as above; assay type: cell-based; conditions: Homo sapiens; for GI50: MDA-MB-231/ ATCC, five doses (0.01–100 μM), read-out: GI50; for inhibition at 10 µM: MDA-MB-231/ATCC (breast cancer), single dose 10 μM, read-out: Growth inhibition percentage (GI %)
[28] = system: MDA-MB-468; test: as above; assay type: cell-based; conditions: Homo sapiens; for inhibition at 10 µM: MDA-MB-468 (breast cancer), single dose 10 μM, read-out: Growth inhibition percentage (GI %); for GI50: MDA-MB-468, five doses (0.01–100 μM), read-out: GI50
[29] = Homo sapiens, HT-29, HT29, five doses (0.01–100 μM)
[30] = Homo sapiens, SW-620, SW-620, five doses (0.01–100 μM)

SMILES: Brc1cccc(/C=N/Nc2nc(N/N=C/c3cccc(Br)c3)nc(N3CCOCC3)n2)c1 [compound 6c, 2,4-Bis[(E)-2-[(3-bromophenyl)methylidene]hydrazin-1-yl]-6-(morpholin-4-yl)-1,3,5-triazine]
- inhibition at 10 µM [1]: 79%
- GI50 [1]: 570 nM
- inhibition at 10 µM [2]: 85.5%
- GI50 [2]: 330 nM
- inhibition at 10 µM [3]: 89.8%
- GI50 [3]: 680 nM
- inhibition at 10 µM [4]: 92.1%
- GI50 [4]: 160 nM
- inhibition at 10 µM [5]: 51%
- inhibition at 10 µM [6]: 36.2%
- GI50 [6]: 1240 nM
- inhibition at 10 µM [7]: 58.8%
- inhibition at 10 µM [8]: 57.5%
- inhibition at 10 µM [9]: 31.6%
- inhibition at 10 µM [10]: 76.2%
- GI50 [10]: 1240 nM
- GI50 ([11]; HT29, five doses (0.01–100 μM)): 610 nM
- GI50 [11, 29]: 600 nM
- inhibition at 10 µM ([11]; Homo sapiens): 93.4%
- GI50 [12, 30]: 820 nM
- inhibition at 10 µM ([12]; Homo sapiens): 75.3%
- GI50 ([12]; SW-620, five doses (0.01–100 μM)): 830 nM
- inhibition at 10 µM [13]: 43.6%
- GI50 [13]: 3830 nM
- inhibition at 10 µM [14]: 154%
- GI50 [14]: 1880 nM
- inhibition at 10 µM [15]: 66.6%
- inhibition at 10 µM [16]: 97.4%
- GI50 [16]: 2430 nM
- inhibition at 10 µM [17]: 82.9%
- inhibition at 10 µM [18]: 79.3%
- GI50 [18]: 1990 nM
- inhibition at 10 µM [19]: 64.1%
- inhibition at 10 µM [20]: 44%
- inhibition at 10 µM [21]: 57.2%
- GI50 [21]: 2920 nM
- inhibition at 10 µM [22]: 75.5%
- GI50 [22]: 530 nM
- GI50 [23]: 140 nM
- inhibition at 10 µM [24]: 73.7%
- GI50 [24]: 2210 nM
- inhibition at 10 µM [25]: 55.8%
- inhibition at 10 µM [26]: 74.5%
- GI50 [26]: 1010 nM
- GI50 [27]: 3970 nM
- inhibition at 10 µM [27]: 33.9%
- inhibition at 10 µM [28]: 98.9%
- GI50 [28]: 1910 nM

SMILES: Clc1cccc(/C=N/Nc2nc(N/N=C/c3cccc(Cl)c3)nc(N3CCOCC3)n2)c1 [compound 6d, 2,4-Bis[(E)-2-[(3-chlorophenyl)methylidene]hydrazin-1-yl]-6-(morpholin-4-yl)-1,3,5-triazine]
- inhibition at 10 µM [1]: 75.2%
- GI50 [1]: 1340 nM
- inhibition at 10 µM [2]: 88.2%
- GI50 [2]: 690 nM
- inhibition at 10 µM [3]: 94%
- GI50 [3]: 1490 nM
- inhibition at 10 µM [4]: 92.3%
- GI50 [4]: 320 nM
- inhibition at 10 µM [5]: 27.8%
- GI50 ([5]; EKVX, five doses (0.01–100 μM), read-out: GI50): 4230 nM
- inhibition at 10 µM [6]: 34.5%
- GI50 [6]: 2170 nM
- inhibition at 10 µM [7]: 21.8%
- inhibition at 10 µM [8]: 43.7%
- inhibition at 10 µM [9]: 34.1%
- inhibition at 10 µM [10]: 63.1%
- GI50 [10]: 1230 nM
- GI50 [11, 29]: 1340 nM
- inhibition at 10 µM ([11]; Homo sapiens): 91.8%
- GI50 [12, 30]: 1780 nM
- inhibition at 10 µM ([12]; Homo sapiens): 81.9%
- inhibition at 10 µM [13]: 56.4%
- GI50 [13]: 5390 nM
- inhibition at 10 µM [14]: 144%
- GI50 [14]: 2860 nM
- inhibition at 10 µM [15]: 50.7%
- GI50 ([15]; MDA-MB-435, five doses (0.01–100 μM), read-out: GI50): 4240 nM
- inhibition at 10 µM [16]: 102%
- GI50 [16]: 2180 nM
- inhibition at 10 µM [17]: 70.2%
- GI50 ([17]; SK-MEL-28, five doses (0.01–100 μM), read-out: GI50): 2860 nM
- inhibition at 10 µM [18]: 55.9%
- GI50 [18]: 1720 nM
- inhibition at 10 µM [19]: 60.9%
- GI50 ([19]; UACC-257, five doses (0.01–100 μM), read-out: GI50): 2470 nM
- inhibition at 10 µM [20]: 8.33%
- GI50 ([20]; UACC-62, five doses (0.01–100 μM), read-out: GI50): 4540 nM
- inhibition at 10 µM [21]: 49.4%
- GI50 [21]: 4610 nM
- inhibition at 10 µM [22]: 69.4%
- GI50 [22]: 1070 nM
- inhibition at 10 µM ([23]; A498 (renal cancer), single dose 10 μM, read-out: Growth inhibition percentage (GI %)): 95.7%
- GI50 [23]: 1670 nM
- inhibition at 10 µM [24]: 74.2%
- GI50 [24]: 2110 nM
- inhibition at 10 µM [25]: 40.1%
- GI50 ([25]; SN 12C, five doses (0.01–100 μM), read-out: GI50): 4990 nM
- inhibition at 10 µM [26]: 73.2%
- GI50 [26]: 1610 nM
- GI50 [27]: 9160 nM
- inhibition at 10 µM [27]: 28.7%
- inhibition at 10 µM [28]: 69.2%
- GI50 [28]: 1650 nM
